Assay results taken from patent US10988508B2, “Synthetic N-acetyl-muramic acid derivatives and uses thereof” (University of Delaware, priority 2015, dated 2021).
“Also recorded” adds a separate entry of the source. Where two headings read alike, the source gives them in different places. Each block holds one molecule with its values, some of them ahead of it.

What was measured:
Nod2 [1] = molecular target: T1, Nod2 (Homo sapiens, UniProt Q9HC29); experiment: Nod2 half-life by cycloheximide chase and western blot in HEK 293T-Nod2myc/Tet-op cells; assay type: cell-based; design: expressed in transfected cells; host or cells: HEK293T; conditions: for stabilization of Nod2 (in words): compared to untreated control
T1 sequence (Q9HC29 whole entry): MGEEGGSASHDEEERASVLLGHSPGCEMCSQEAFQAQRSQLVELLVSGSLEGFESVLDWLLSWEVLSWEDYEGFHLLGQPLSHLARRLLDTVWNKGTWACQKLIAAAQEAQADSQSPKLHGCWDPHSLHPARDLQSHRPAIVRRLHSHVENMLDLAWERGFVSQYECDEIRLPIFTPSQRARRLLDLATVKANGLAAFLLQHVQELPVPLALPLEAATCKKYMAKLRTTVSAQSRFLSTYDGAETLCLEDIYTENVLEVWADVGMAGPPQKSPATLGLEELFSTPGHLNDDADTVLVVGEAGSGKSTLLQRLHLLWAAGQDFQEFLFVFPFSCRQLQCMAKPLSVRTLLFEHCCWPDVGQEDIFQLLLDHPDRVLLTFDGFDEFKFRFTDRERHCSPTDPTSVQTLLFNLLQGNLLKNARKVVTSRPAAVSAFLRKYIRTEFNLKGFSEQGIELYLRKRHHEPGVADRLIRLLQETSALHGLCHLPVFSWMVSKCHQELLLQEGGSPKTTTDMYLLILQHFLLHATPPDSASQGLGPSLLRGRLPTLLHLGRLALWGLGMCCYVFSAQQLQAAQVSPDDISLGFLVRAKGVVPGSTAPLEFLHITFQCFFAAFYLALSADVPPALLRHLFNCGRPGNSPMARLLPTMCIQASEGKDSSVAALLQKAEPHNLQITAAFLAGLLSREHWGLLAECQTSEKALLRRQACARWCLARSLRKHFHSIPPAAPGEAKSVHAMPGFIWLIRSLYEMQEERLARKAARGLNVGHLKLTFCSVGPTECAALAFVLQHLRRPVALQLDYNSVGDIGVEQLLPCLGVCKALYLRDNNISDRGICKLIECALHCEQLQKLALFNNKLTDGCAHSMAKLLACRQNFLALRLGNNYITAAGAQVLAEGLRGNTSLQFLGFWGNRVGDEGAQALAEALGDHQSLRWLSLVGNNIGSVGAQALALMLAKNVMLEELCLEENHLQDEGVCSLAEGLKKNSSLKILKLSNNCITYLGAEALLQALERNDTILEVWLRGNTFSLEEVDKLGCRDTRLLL
Experimental: HEK 293T-Nod2myc/Tet-op cells were incubated with MDP derivatives (compound D2 is shown) or water (Ctrl) and lysates were collected after cycloheximide treatment during the indicated time intervals. Equal amount of lysates were subjected to western blot and probed using rabbit anti-myc antibody. β-actin was used as a loading control.
Nod2 is a transiently stable protein. It is well-known that ligand binding can affect the stability of a receptor. We considered that the interaction of peptidoglycan derivatives with Nod2 could alter the stability of the protein. In order to determine if ligand interaction changes the half-life of Nod2, we analyzed the naturally occurring MDPs (D2, D9, D1), and a subset of the peptidoglycan derivatives with increased activity (D24, D25) or structural similarity (D53, D16) to D2 or D9. We made use of a tetracycline-induced Nod2 expressing cell line, an excellent match for endogenous Nod2 cell lines, and cycloheximide inhibition of protein synthesis to determine the half-life of Nod2 in the presence of the MDP derivatives. Half-life was determined by first order decay according to literature precedent. […] When Nod2 is not treated with a peptidoglycan derivative, the half-life is 7.1±1.4 hours. […] As compound D1 is the only compound tested that contains an amine, which will be positively charged at cellular pH, we were concerned that cell permeability may be a factor. We analyzed the ability of 6-amino-MDP (18 in Table 4), a MDP derivative that replaces the 6-primary-hydroxy group with an amine.

Nod2 [2] = molecular target: T1, Nod2; experiment: Nod2-dependent NF-κB luciferase reporter assay in transfected HEK293T cells; conditions: 20 μM; for NF-KB Fold Activation ± SD: 12 h, HEK293T, (+) Nod2 plasmid normalized to (−) Nod2 plasmid
E. coli ΔmurQ-KU cells = experiment: in vivo peptidoglycan remodeling and CuAAC fluorophore labeling, visualized by SIM; assay type: cell-based; conditions: 0.2% (w/v) sugar, fosfomycin 200 μg/mL, IPTG 1 mM, CuAAC with rhodamine or Cy-5
[3] = tested on: E. coli cells with AmgK, MurU and ΔMurQ; experiment: labeling efficiency by flow cytometry (FACS) after click with Cy-5; assay type: cell-based; conditions: after CuAAC with Cy-5
mouse Nod2 = molecular target: T2, mouse Nod2 (Mus musculus, UniProt Q8K3Z0); conditions: 200 μM, protein synthesis not inhibited; cited from earlier work
T2 sequence (Q8K3Z0 1-1020): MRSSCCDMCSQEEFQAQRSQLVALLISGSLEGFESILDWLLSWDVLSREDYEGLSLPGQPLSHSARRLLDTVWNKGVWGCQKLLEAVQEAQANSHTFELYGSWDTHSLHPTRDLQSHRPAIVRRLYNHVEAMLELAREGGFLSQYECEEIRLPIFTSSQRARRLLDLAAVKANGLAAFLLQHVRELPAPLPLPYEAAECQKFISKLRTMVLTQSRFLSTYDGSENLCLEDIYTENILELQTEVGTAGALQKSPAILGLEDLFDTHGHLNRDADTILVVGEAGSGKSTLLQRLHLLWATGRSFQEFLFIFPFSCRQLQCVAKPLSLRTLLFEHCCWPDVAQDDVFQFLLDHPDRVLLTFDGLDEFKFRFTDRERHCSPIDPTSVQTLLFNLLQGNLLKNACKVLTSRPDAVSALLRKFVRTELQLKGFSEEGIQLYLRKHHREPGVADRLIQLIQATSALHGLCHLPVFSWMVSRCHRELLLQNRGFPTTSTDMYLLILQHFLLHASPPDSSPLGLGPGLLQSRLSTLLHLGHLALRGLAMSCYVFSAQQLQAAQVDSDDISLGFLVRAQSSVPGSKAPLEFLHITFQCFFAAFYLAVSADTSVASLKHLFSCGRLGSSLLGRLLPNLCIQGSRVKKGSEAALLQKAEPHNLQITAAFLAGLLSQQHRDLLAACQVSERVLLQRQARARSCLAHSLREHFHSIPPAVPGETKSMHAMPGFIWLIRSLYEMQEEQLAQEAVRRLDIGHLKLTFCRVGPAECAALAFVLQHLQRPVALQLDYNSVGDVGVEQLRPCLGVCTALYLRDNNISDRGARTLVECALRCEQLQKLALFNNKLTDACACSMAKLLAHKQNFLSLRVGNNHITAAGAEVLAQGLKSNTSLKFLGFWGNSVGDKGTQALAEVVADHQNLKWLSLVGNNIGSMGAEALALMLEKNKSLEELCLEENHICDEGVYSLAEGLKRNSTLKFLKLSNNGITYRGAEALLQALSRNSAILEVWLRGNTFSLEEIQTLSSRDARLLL

Nod2 [4] = molecular target: T1, Nod2; experiment: in vitro binding assay of Nod2; design: expressed in transfected cells; host or cells: HEK293T
Text: This could be from either the endogenous Nod2 and/or other targets of the bacterial cell wall ligands.

Nod2 [5] = molecular target: T1, Nod2; design: expressed in transfected cells; host or cells: HEK293T; conditions: cited from earlier work

- stabilization of Nod2 (in words) (Nod2 [1]): capable of stabilizing Nod2
- NF-KB Fold Activation ± SD (Nod2 [2]): 3.1 ± 0.3 Fold
Structure (SMILES): C[C@@H](NC(=O)[C@@H](C)OC1C(NC(=O)CO)[C@@H](O)OC(CO)[C@H]1O)C(=O)NC(CCC(=O)O)C(N)=O (some centres unmarked) [D9, N-glycolyl-MDP]

- stabilization of Nod2 (in words) (Nod2 [1]): capable of stabilizing Nod2
- Kd (Nod2 [4]): 51 nM
- NF-KB Fold Activation ± SD (Nod2 [2]): 1.8 ± 0.3 Fold
Structure (SMILES): CC(=O)N[C@H]1C(O)O[C@H](CO)[C@@H](O)[C@@H]1O[C@H](C)C(=O)N[C@@H](C)C(=O)N[C@H](CCC(=O)O)C(N)=O (some centres unmarked) [D2, N-acetyl-MDP]
- effect on Nod2 level (mouse Nod2): led to the degradation of Nod2

The next lines start with the molecule.

Structure (SMILES): CC(=O)N[C@H]1C(O)O[C@H](CO)[C@@H](O)[C@@H]1O[C@H](C)C(=O)O (some centres unmarked) [A2, N-acetyl-muramic acid]
- fluorescent labeling of cells under SIM (E. coli ΔmurQ-KU cells): couldn't detect any fluorescence
- fluorescent signal in the gated Cy-5 channel [3]: slight fluorescence intensity

Structure (SMILES): C[C@H](NC(=O)[C@@H](C)O[C@@H]1[C@@H](N)[C@H](O)O[C@H](CO)[C@H]1O)C(=O)N[C@H](CCC(=O)O)C(N)=O [D1, (R)-5-amino-4-((S)-2-((R)-2-(((2R,3R,4R,5S,6R)-3-amino-2,5-dihydroxy-6-(hydroxymethyl)tetrahydro-2H-pyran-4-yl)oxy)propanamido)propanamido)-5-oxopentanoic acid]
- stabilization of Nod2 (in words) (Nod2 [1]): no stabilization of Nod2; also recorded: did not stabilize; also recorded: no stabilizing effect
- NF-κB activation (in words) (Nod2 [2]): did not activate NF-κB; also recorded: does not elicit an immune response via the Nod2-dependent pathway
- NF-KB Fold Activation ± SD (Nod2 [2]): No activation

Structure (SMILES): CC(=O)NC1C(O)OC(CN)C(O)[C@@H]1O[C@H](C)C(=O)N[C@@H](C)C(=O)N[C@H](CCC(=O)O)C(N)=O (some centres unmarked) [6-amino-MDP]
- increase of the half-life of Nod2 (Nod2 [1]; versus untreated): ~3 fold
- NF-κB activation in a Nod2-dependent manner (known) (Nod2 [5]): activate NF-κB in a Nod2-dependent manner
- NF-KB Fold Activation ± SD (Nod2 [5]; value marked with reference 19): 2.8 ± 0.1^19 Fold
